The values that follow come from patent publication US9261498B2, “Biomarker for sensitivity to mTOR inhibitor therapy in kidney cancer” (The Regents of the University of California, priority 2005, dated 2016).

In test [1] the test system is mTOR. Briefly: Immunoblot of S6 phosphorylation in xenograft tumors. To be noted: parental and knockdown xenografts, 0.1 mg/kg, day 5 of treatment. Format: in vivo, SCID mice. The method, then: (§1) FIGS. 1A-1E. Effects of VHL knockdown on sensitivity to CCI-779. (a) Immunoblotting of lysates derived from shRNA and control (empty vector, V) in SN12C, using antibodies against VHL (both isoforms detected), HIF-1α, HIF-2α, GLUT-1, CA-IX and β-Actin (as a loading control). (b) SN12C-CSCG and SN12C-VHLshRNA cells (1×10^5) were cultured in 10% serum rich media, in the presence of vehicle, 1 or 10 nM of CCI-779 for 5 days. Cell growth was measured by cell counts (n=3). […] (c) SN12C-CSCG (C1) and SN12C-CSCG shVHL RNA (C2) cells were injected into SCID mice at a dose of 1×10^6 cells per mouse (n=30). […] Phosphorylated-S6 protein in SN12C-CSCG and SN12C-VHL shRNA xenograft tumors treated with vehicle or 0.1 mg/kg of CCI-779 was measured by immunoblot C3 and C4). […]
Cells and xenograft tumors were lysed in ECB lysis buffer (see, e.g. Kondo et al., Cancer Cell 1, 237-46 (2002)) or high-detergent buffer (2% SDS), (see, e.g. Chen et al., Nat Med 10, 33-9 (2004)), respectively, supplemented with complete protease and phosphatase inhibitor cocktails (Calbiochem). […] Bound antibody was detected using enhanced chemiluminescence (ECL, Amersham). For VEGF ELISA quantification, cells were plated in 6 well plates (1×10^5 per well). […] Thirty-six hours later, VEGF ELISA (R&D Systems) was performed according to the manufacturer's instructions, using a Fisher Plate reader. […]

The test system of test [2] is SN12C-shVHL RNAi and ACHN-shVHL RNAi xenograft tumors. Briefly: Subcutaneous xenograft tumor growth, VHL knockdown tumors. Format: in vivo, SCID mice. To be noted: 0.1 mg/kg CCI-779 daily. On the procedure:
as §1
For in vitro experiments, cells (5×10^4) were plated and treated with 1 and 10 nM CCI-779 (kind gift of J. Gibbons, Wyeth) or vehicle (ethanol). On day 5-post treatment, cells were trypsinized, resuspended in DMEM with 10% FBS and counted using the VI CELL counter (Beckman Coulter), according to the manufacturer's instructions. […] In vivo tumorigenicity was measured by injection of 5×10^5 SN12C-CSCG, ACHN-CSCG, SN12C-CSCG-VHLshRNAi, ACHN-CSCG-VHLshRNAi, SN12C-CSCG-VHLshRNAi-pBABE, SN12C-CSCG-VHLshRNAi-pBABE-HA-HIF-2α (P405A; P531A) cells in 100 μl of Matrigel (Collaborative Biomedical) subcutaneously into the flanks of SCID mice. […]

Regarding `CO[C@H]1C[C@@H]2CC[C@@H](C)[C@@](O)(O2)C(=O)C(=O)N2CCCC[C@H]2C(=O)O[C@H]([C@H](C)C[C@@H]2CC[C@@H](OC(=O)C(C)(CO)CO)[C@H](OC)C2)CC(=O)[C@H](C)/C=C(\C)[C@@H](O)[C@@H](OC)C(=O)[C@H](C)C[C@H](C)/C=C/C=C/C=C/1C` [CCI-779], in test [1], the “S6 phosphorylation in xenograft tumors” value is “decrease in S6 phosphorylation”. Also, the “growth of the VHL shRNAi tumors” value in test [2] is recorded as “completely blocked the growth”.
